Measured values published in patent publication US11534428B1, “Compositions and methods for delaying the incidence of labor” (ObsEva S.A., priority 2018, dated 2022).
“Also recorded” adds a separate entry of the source. Like-named read-outs stand apart in the source and are kept apart here. Blank lines part the entries; values can stand above or below the compound they belong to. Bridge positions count the residues as written; N and C are the ends. Square brackets hold non-standard residues; d marks the D form. Peptide text beside a SMILES is read from it. Orn = NCCC[C@H](N)C(=O)O; Mpa = O=C(O)CCS

Columns and labels:
[1] = Part A: three-period crossover, single doses of compound (2) and MgSO4 alone and co-administered; settings: for pharmacokinetic interaction between compound (2) and MgSO4: in vivo
Protocol: Both studies enrolled 12 healthy, non-pregnant women of reproductive age. […] During the MgSO4 study, women stayed in the clinic from Day −1 to Day 4 of each period. Safety and pharmacokinetics were assessed in accordance with European and United States clinical drug-interaction guidelines. Additional electrocardiogram and neurological examinations were performed assessing safety following MgSO4 administration.
One cohort of 12 subjects was admitted to the study unit on day −1, period 1. […] On day 1, subjects were crossed over and received the alternate treatment to that in period 1. Subjects were discharged on day 3, and after washout returned on day −1, period 3. […] Outpatient visits occurred on days 4 and 5 followed by a final visit 7 days (±1 day) later. Venous blood samples used in pharmacokinetic analyses were taken pre-dose then 0.25, 0.5, 0.75, 1, 1.5, 2, 3, 4, 6, 8, 12, 16 and 20 hours post dose on day 1 of each treatment period. Single samples for pharmacokinetic analysis were also drawn on days 2, 3, 4 and 5 of each treatment period.
(§1) Plasma samples used to determine drug concentration were analyzed by SGS (SGS CEPHAC, France) using a validated methods. Non-compartmental analysis was used to estimate pharmacokinetic parameters and pharmacokinetic modeling was used to access time-dependent pharmacokinetics. […] Other pharmacokinetic parameters were calculated according to standard equations.
Pharmacokinetic interaction assessments were performed on logarithmically transformed AUC0-24, AUC0-∞ and Cmax values using ANOVA models with fixed effects for sequence (Part A only), period, and treatment and a random term for subject within sequence.
(§2) Differences in tmax were explored by computing the Hodges-Lehmann estimate and the corresponding 90% CI according to Tukey using the approximate method. The Wilcoxon signed rank test was used to test differences in tmax. Unrecorded values were treated as missing.

[2] = Part B: single-sequence crossover, compound (2) at steady state co-administered with atosiban, nifedipine or betamethasone; settings: for Tmax: female, human, in vivo, iv, 60.75 mg, time of peak plasma concentration
Protocol: (§3) Both studies enrolled 12 healthy, non-pregnant women of reproductive age. […] Safety and pharmacokinetics were assessed in accordance with European and United States clinical drug-interaction guidelines.
(§4) Once at steady state, compound (2) was sequentially co-administered with each of the other tocolytic drugs. Subjects were admitted to the study unit on day −1. On day 1, each subject received a single intravenous treatment course of atosiban. […] From days 4 to 9, oral doses of compound (2) (1,000 mg) were administered until reaching steady state. […] Two additional samples were taken at 24 and 48 hours post dose to determine betamethasone concentration, due to the longer half-life of this drug. Pharmacokinetic sampling also occurred before compound (2) administration on days 4, 5, 6, 7, 8 and 9, with an additional 0.25 hour post-dose sample taken on day 9 to determine concentration of compound (2) and its metabolite, compound (1). […] Pharmacokinetic samples were obtained at the times stated above on days 10, 11 and 12, and additional betamethasone samples were obtained 24 and 48 hours post-dose. Subjects were discharged on day 14 and returned for a follow-up visit on day 21.
as §1
(§5) Pharmacokinetic interaction assessments were performed on logarithmically transformed AUC0-24, AUC0-∞ and Cmax values using ANOVA models with fixed effects for sequence (Part A only), period, and treatment and a random term for subject within sequence. The 90% confidence intervals (90% CI) for the geometric mean ratio of AUC0-24, AUC0-∞ and Cmax were constructed, comparing treatments administered alone versus combination treatments.
as §2

[3] = in vivo
Protocol: as §3, §4, §1, §5, §2

[4] = clinical; settings: female, human, in vivo
Protocol: as §3, §4, §1, §5, §2

[5] = clinical drug-interaction study in healthy women, Parts A and B together (pharmacokinetics, safety, tolerability); assay type: in vivo, human; settings: plasma, oral compound (2)
Protocol: Healthy women aged between 18 and 45 years with a body mass index of 18.0 to 30.0 kg/m^2 were included in these investigations. Subjects were screened 55 days before the first drug administration and had to be healthy according to medical history, physical examinations, blood pressure tests, electrocardiogram results and laboratory assessment of blood and urine.
This study was performed at Croydon University Hospital, Croydon, UK. The study protocol (EudraCT: 2016-001958-18) was reviewed and approved by a National Health Service (NHS) Research Ethics Committee (South Central-Berkshire B, UK) and the Medicines and Healthcare products Regulatory Authority (MHRA). The study was conducted according to the ethical principles enshrined in UK law, the Declaration of Helsinki and Good Clinical Practice guidelines. All subjects were informed of the purpose of the study and signed voluntary consent forms before being enrolled.
Other pharmacokinetic parameters were calculated according to standard equations.

[6] = target: T1, Pept1 transporter protein (Homo sapiens, UniProt P46059); test: Pept1 transporter dependence of intestinal absorption; assay type: in vitro ADME
T1 sequence (P46059 1-708): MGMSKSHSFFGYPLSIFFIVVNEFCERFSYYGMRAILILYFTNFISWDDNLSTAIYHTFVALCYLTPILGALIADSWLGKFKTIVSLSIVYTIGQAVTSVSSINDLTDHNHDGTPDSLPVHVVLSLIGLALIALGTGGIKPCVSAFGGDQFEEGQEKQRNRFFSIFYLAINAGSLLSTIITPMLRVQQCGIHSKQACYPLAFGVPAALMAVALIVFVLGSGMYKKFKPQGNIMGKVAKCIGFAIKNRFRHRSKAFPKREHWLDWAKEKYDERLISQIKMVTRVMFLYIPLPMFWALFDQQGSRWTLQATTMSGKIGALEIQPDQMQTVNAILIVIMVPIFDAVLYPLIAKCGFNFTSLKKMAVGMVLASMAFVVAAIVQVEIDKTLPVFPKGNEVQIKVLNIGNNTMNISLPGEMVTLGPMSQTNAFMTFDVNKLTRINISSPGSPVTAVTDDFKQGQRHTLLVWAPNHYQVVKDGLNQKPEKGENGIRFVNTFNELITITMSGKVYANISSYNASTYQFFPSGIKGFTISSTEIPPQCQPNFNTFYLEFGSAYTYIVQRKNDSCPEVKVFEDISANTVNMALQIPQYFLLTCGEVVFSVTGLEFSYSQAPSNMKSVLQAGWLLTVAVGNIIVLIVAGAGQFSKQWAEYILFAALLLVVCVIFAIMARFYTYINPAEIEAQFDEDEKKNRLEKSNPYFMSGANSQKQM
Description: Compound 2 is de-esterified by ambient esterases in the small intestine and subsequently penetrates the small intestinal epithelium passively. […] Pept1 is known to mediate the absorption of a variety of valinate esters, as described, for example, in Vig et al., Adv. Drug Deliv. Rev. […] Dispos. 41:608-614 (2013). […] Rather, compound 2 and salts thereof are converted in vivo to a form that is readily absorbed in a manner independent of energy and local proton gradient. This beneficial property, coupled with the high aqueous solubility of compound I and salts thereof, fosters a pharmacokinetic profile in which compound 2 and salts thereof readily dissolve in an aqueous environment and are in turn converted into a form capable of transported-independent absorption.

[7] = relative to compound 1; cited from earlier work
[8] = crystal form stability and hygroscopicity; assay type: physicochemical
Description: For example, this compound is readily crystallized using a several distinct experimental procedures. Compound 3 assumes a single, reproducible crystal form upon crystallization from a variety of media and under different ambient conditions. […] For instance, impurities associated with atmospheric water are not readily integrated into the crystalline form of compound 3.

[9] = co-administration with MgSO4 vs compound (2) alone
[10] = compound (2) with MgSO4 vs alone

SMILES: O=S(=O)([O-])[O-].[Mg+2] [MgSO4, magnesium sulfate, reference compound]
- AUCs of total Mg ([1]; after co-administration of compound (2) and MgSO4 vs MgSO4 alone): slightly lower
- pharmacokinetic interaction between compound (2) and MgSO4 [1]: no relevant mutual pharmacokinetic interactions
- effect of compound (2) on timing or extent of total Mg exposure ([1]; interaction analysis): no effects

SMILES: CCOc1ccc(C[C@H]2NC(=O)CCSSC[C@@H](C(=O)N3CCC[C@H]3C(=O)N[C@@H](CCCN)C(=O)NCC(N)=O)NC(=O)[C@H](CC(N)=O)NC(=O)[C@H]([C@@H](C)O)NC(=O)[C@H]([C@@H](C)CC)NC2=O)cc1 [atosiban] ([Mpa][dY](Et)ITNCP[Orn]G-NH2; disulfide 1-6)
- Cmax and AUCs, co-administration with compound (2) vs drug alone ([2]; descriptive): slightly higher
- Tmax ([2]; co-administered with compound (2), compound (2) 1,000 mg per day at steady state): 0.25 h
- Tmax ([2]; drug administered alone): 1.5 h
- tmax, with compound (2) vs drug alone ([2]; paired analysis): no significant tmax difference

- Cmax and AUCs, co-administration with compound (2) vs drug alone [3]: Slightly increased
- rise of plasma concentrations [3]: increased more rapidly
- tmax, with compound (2) vs drug alone [3]: significantly shorter
SMILES: C[C@H]1C[C@H]2[C@@H]3CCC4=CC(=O)C=C[C@]4(C)[C@@]3(F)[C@@H](O)C[C@]2(C)[C@@]1(O)C(=O)CO [betamethasone, reference compound]

- compound (1) AUC0-24 [1, 9]: small decrease
- compound (1) AUC0-t or AUC0-∞ [1, 9]: unchanged
- compound (1) tmax [1, 10]: slightly later; also recorded: no effect
- interaction estimates (linear mixed model) [1, 10]: ~1
- compound (1) Cmax ([1]; during MgSO4 infusion vs compound (2) alone): lower
- pharmacokinetic interaction between compound (2) and MgSO4 [1]: no interaction of clinical significance
- compound (1) mean t1/2 and MRT ([1]; with vs without MgSO4 infusion): nearly identical
- Tmax [4]: 3 h
- change in compound (1) AUC0-24 ([3]; female, human): 15-24%
- change in compound (1) AUC (AUC0-24) ([3]; female, human): −21%
- increase in compound (1) AUC ([3]; female, human): 15%
- increase in compound (1) Cmax ([3]; female, human): 35%
- increase in compound (1) MRT and t1/2 ([3]; female, human): 1.7-2 fold
- PE, compound (1) AUC ([3]; human): 0.786
- PE, compound (1) Cmax ([3]; human): 0.719
- changes in compound (1) tmax ([3]; human): not significant
- compound (1) CL/F ([3]; human): decrease
- compound (1) tmax ([3]; human): increase
SMILES: O=C(N[C@@H](CCO)c1ccc(F)cc1)[C@@H]1SCCN1S(=O)(=O)c1ccc(-c2ccccc2)cc1 [compound (1), 3-([1,1′-biphenyl]-4-ylsulfonyl)-N-[1-(4-fluorophenyl)-3-hydroxypropyl]-1,3-thiazolidine-2-carboxamide]

- substrate for the Pept1 transporter protein [6]: not substrates
SMILES: CC(C)[C@H](N)C(=O)OCC[C@H](NC(=O)[C@@H]1SCCN1S(=O)(=O)c1ccc(-c2ccccc2)cc1)c1ccc(F)cc1 [compound (2), (3S)-3-({[(2S)-3-(biphenyl-4-ylsulfonyl)-1,3-thiazolidin-2-yl]carbonyl}-amino)-3-(4-fluorophenyl)propyl L-valinate]
- pharmacokinetic interaction between compound (2) and MgSO4 [1]: no relevant mutual pharmacokinetic interactions
- mean AUC0-∞ of compound (2), times lower than that of compound (1) [5]: 771-1163 times
- mean peak concentration of compound (2), times lower than that of compound (1) [5]: 133-246 times
- solubility in water and in FeSSIF and FaSSIF media [7]: improvements

- hygroscopicity [8]: low
- stability of the crystal form ([8]; ambient conditions and elevated relative humidity): extended stability
SMILES: CC(C)[C@H](N)C(=O)OCC[C@H](NC(=O)[C@@H]1SCCN1S(=O)(=O)c1ccc(-c2ccccc2)cc1)c1ccc(F)cc1.Cl [compound (3), (3S)-3-({[(2S)-3-(biphenyl-4-ylsulfonyl)-1,3-thiazolidin-2-yl]carbonyl}-amino)-3-(4-fluorophenyl)propyl L-valinate hydrochloride]

SMILES: COC(=O)C1=C(C)NC(C)=C(C(=O)OC)C1c1ccccc1[N+](=O)[O-] [nifedipine, reference compound]
- effect of compound (2) on exposure to the co-administered drug [3]: marked increase
